Experimental data from ChEMBL document CHEMBL1201862, “PubChem BioAssay data set” (2004).
Calls of active or inactive are those of the source. Rule as the data show it: actives have a measured IC50 and inactives only a lower limit.

Molecular target: Envelope glycoprotein gp160 (Human immunodeficiency virus 1, UniProt Q6QLK5)
Test: inhibitors of HIV fusion peptide binding, primary screen, biochemical, uHTS, fluorescence dequenching (AID 1986)

Envelope glycoprotein gp160, sequence (Q6QLK5 whole entry, the tested form may be a part): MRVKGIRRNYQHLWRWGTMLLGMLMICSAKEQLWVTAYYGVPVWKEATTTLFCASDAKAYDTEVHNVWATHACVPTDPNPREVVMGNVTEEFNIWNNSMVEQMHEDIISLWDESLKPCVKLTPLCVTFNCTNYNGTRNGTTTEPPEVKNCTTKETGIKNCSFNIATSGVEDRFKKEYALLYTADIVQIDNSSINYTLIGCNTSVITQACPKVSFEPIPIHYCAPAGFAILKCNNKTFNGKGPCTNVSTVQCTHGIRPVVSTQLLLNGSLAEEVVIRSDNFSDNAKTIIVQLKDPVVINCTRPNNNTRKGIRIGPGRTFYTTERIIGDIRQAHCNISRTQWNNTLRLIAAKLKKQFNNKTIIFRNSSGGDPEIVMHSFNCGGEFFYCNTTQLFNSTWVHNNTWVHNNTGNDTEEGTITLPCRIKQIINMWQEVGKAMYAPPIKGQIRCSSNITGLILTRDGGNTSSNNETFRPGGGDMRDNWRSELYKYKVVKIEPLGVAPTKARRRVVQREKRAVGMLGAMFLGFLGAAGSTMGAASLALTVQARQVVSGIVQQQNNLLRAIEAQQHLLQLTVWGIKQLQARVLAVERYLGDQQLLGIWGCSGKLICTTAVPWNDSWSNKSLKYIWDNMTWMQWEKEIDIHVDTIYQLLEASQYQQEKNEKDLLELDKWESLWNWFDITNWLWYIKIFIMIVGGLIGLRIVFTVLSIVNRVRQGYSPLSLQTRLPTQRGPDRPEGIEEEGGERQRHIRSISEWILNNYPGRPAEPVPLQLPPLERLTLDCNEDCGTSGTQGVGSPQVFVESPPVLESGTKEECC

SMILES | IC50
C=CCOc1ccc(C(c2c(C(=O)O)[nH]c3ccccc23)c2c(C(=O)O)[nH]c3ccccc23)cc1 | 5.01 µM (active)
CC(/C=C1\SC(=S)N(c2ccc(C(=O)O)cc2)C1=O)=C\c1ccccc1 | 16.2 µM (active)
